These results are taken from patent US12630534B2 (TAKEDA PHARMACEUTICAL COMPANY LIMITED, priority 2020, dated 2026).

What is called inhibition is the drop in the measured response relative to a control, in per cent.

In the first experiment the target is T1, human GPR139 (Homo sapiens, UniProt Q6DWJ6).
T1 construct: expressed in transfected cells; host or cells: CHO-TREx (Life Technologies) cells, expression induced with doxycycline
T1 sequence (Q6DWJ6 1-353): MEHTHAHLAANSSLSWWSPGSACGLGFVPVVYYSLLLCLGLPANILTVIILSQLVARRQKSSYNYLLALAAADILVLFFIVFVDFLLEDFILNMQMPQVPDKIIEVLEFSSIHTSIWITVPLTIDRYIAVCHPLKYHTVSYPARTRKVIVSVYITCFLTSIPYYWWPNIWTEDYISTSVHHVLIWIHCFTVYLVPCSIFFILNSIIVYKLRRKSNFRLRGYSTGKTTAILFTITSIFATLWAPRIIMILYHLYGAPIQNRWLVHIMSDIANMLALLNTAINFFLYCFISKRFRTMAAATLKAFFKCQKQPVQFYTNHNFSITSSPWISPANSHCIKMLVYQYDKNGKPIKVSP
Kind of experiment: Inhibition rate of the amount of IP1 in GPR139-expressed CHO cells (inverse agonist assay, Test Example 2). The conditions noted are these: CHO, relative value, inhibition rate of Example Compound 2 in Test Example 1 defined as 100%. Type of experiment: cell-based. In outline:
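CHO-TREx cells with doxycycline-inducible human GPR139 (2 μg/mL, 17 h) were incubated with compound at 2000 cells/well for 40 min at 37° C. IP1 quantified by HTRF (665/615 nm ratio ×10000); inhibition rate expressed relative to a reference compound defined as […].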
On to `Cc1cn(-c2cc(C(F)(F)F)cc(N3CCO[C@H](C)C3)n2)c(=O)n1Cc1cnn(C(C)C)c1` [Example 129, 4-methyl-1-{6-[(2R)-2-methylmorpholin-4-yl]-4-(trifluoromethyl)pyridin-2-yl}-3-{[1-(propan-2-yl)-1H-pyrazol-4-yl]methyl}-1,3-dihydro-2H-imidazol-2-one], for which the inhibition at 30 µM was found to be 100%.

Regarding `CCn1cc(Cn2cc(C)n(-c3cc(Br)cc(OCC4CC(F)(F)C4)c3)c2=O)cn1` [Example 65, 3-{3-bromo-5-[(3,3-difluorocyclobutyl)methoxy]phenyl}-1-[(1-ethyl-1H-pyrazol-4-yl)methyl]-4-methyl-1,3-dihydro-2H-imidazol-2-one], the inhibition at 30 µM is 98%.

As for `CCn1cc(Cn2cc(C)n(-c3cc(N4CCOC(C(F)F)C4)cc(C(F)(F)F)c3)c2=O)cn1` (centres unmarked) [Example 20, 3-{3-[2-(difluoromethyl)morpholin-4-yl]-5-(trifluoromethyl)phenyl}-1-[(1-ethyl-1H-pyrazol-4-yl)methyl]-4-methyl-1,3-dihydro-2H-imidazol-2-one], the inhibition at 30 µM came out at 99%.

As to `CCn1cc(Cn2cc(C)n(-c3cc(C(F)(F)F)nn3CCC3CCC3)c2=O)cn1` [Example 77, 3-[1-(2-cyclobutylethyl)-3-(trifluoromethyl)-1H-pyrazol-5-yl]-1-[(1-ethyl-1H-pyrazol-4-yl)methyl]-4-methyl-1,3-dihydro-2H-imidazol-2-one], the inhibition at 30 µM was 100%.

Take `CCn1cc(Cn2ccn(-c3cc(N(C)C4CCOCC4)cc(C(F)(F)F)c3F)c2=O)cn1` [Example 10, 1-[(1-ethyl-1H-pyrazol-4-yl)methyl]-3-{2-fluoro-5-[methyl(oxan-4-yl)amino]-3-(trifluoromethyl)phenyl}-1,3-dihydro-2H-imidazol-2-one]: the inhibition at 30 µM is 100%.

Regarding `CCn1cc(Cn2ccn(-c3cc(-c4ccc(F)cc4)cc(C4CC4(F)F)c3F)c2=O)cn1` (centres unmarked) [Example 131], the inhibition at 30 µM came to 96%.

With `CCn1cc(Cn2c(C)cn(-c3cc(N4CCO[C@H](C)C4)cc(C4CC4)c3F)c2=O)cn1` [Example 140, 1-{3-cyclopropyl-2-fluoro-5-[(2R)-2-methylmorpholin-4-yl]phenyl}-3-[(1-ethyl-1H-pyrazol-4-yl)methyl]-4-methyl-1,3-dihydro-2H-imidazol-2-one], the inhibition at 30 µM was determined as 98%.

With `CCn1cc(Cn2cc(C)n(-c3nc(N4CCOC(C)(C)C4)cc(C(F)(F)F)n3)c2=O)cn1` [Example 134, 3-[4-(2,2-Dimethylmorpholine-4-yl)-6-(trifluoromethyl)pyrimidine-2-yl]-1-[(1-ethyl-H-pyrazole-4-yl)methyl]-4-methyl-1,3-dihydro-2H-imidazole-2-one], the inhibition at 30 µM is 98%.

On to `CCn1cc(Cn2ccn(-c3cc(N4CCOC(C)(C)C4)cc(Br)c3F)c2=O)cn1` [Example 146, 1-[3-bromo-5-(2,2-dimethylmorpholin-4-yl)-2-fluorophenyl]-3-[(1-ethyl-1H-pyrazol-4-yl)methyl]-1,3-dihydro-2H-imidazol-2-one], for which the inhibition at 30 µM is 103%.

As for `CCn1cc(Cn2cc(C)n(-c3cc(N4CCOC(C)(C)C4)cc(C(F)(F)F)c3)c2=O)cn1` [Example 29, 3-[3-(2,2-dimethylmorpholin-4-yl)-5-(trifluoromethyl)phenyl]-1-[(1-ethyl-1H-pyrazol-4-yl)methyl]-4-methyl-1,3-dihydro-2H-imidazol-2-one], the inhibition at 30 µM was determined as 99%.

As for `CCn1cc(Cn2c(C)nn(-c3cc(C(F)(F)F)cc(N4CCC(F)(F)CC4)n3)c2=O)cn1` [Example 141], the inhibition at 30 µM came to 101%.

On to `CCc1cn(Cc2cnn(CC)c2)c(=O)n1-c1cc(C(F)(F)F)cc(N2CCO[C@H](C)C2)n1` [Example 157, 4-ethyl-1-[(1-ethyl-1H-pyrazol-4-yl)methyl]-3-{6-[(2R)-2-methylmorpholin-4-yl]-4-(trifluoromethyl)pyridin-2-yl}-1,3-dihydro-2H-imidazol-2-one], for which the inhibition at 30 µM is 101%.

With `CCn1cc(Cn2cc(C)n(-c3cc(C4CC4)c(F)c(N4CCO[C@H](C)C4)c3)c2=O)cn1` [Example 160, 3-{3-cyclopropyl-4-fluoro-5-[(2R)-2-methylmorpholin-4-yl]phenyl}-1-[(1-ethyl-1H-pyrazol-4-yl)methyl]-4-methyl-1,3-dihydro-2H-imidazol-2-one], the inhibition at 30 µM turned out to be 98%.

Regarding `CCn1cc(Cn2c(C)nn(-c3cc(N4CCOC(C)(C)C4)cc(C(F)(F)F)c3F)c2=O)cn1` [Example 96, 2-[5-(2,2-dimethylmorpholin-4-yl)-2-fluoro-3-(trifluoromethyl)phenyl]-4-[(1-ethyl-1H-pyrazol-4-yl)methyl]-5-methyl-2,4-dihydro-3H-1,2,4-triazol-3-one], the inhibition at 30 µM is 101%.

Turning to `CCn1cc(Cn2cc(C)n(-c3cc(N4C[C@@H](C)O[C@@H](C)C4)cc(C(F)(F)F)c3)c2=O)cn1` [Example 23, 3-{3-[(2R,6S)-2,6-dimethylmorpholin-4-yl]-5-(trifluoromethyl)phenyl}-1-[(1-ethyl-1H-pyrazol-4-yl)methyl]-4-methyl-1,3-dihydro-2H-imidazol-2-one], the inhibition at 30 µM is 100%.

In the case of `CCn1cc(Cn2c(C)c(C)n(-c3cc(C(F)(F)F)c(F)c(N4CCO[C@H](C)C4)n3)c2=O)cn1` [Example 150, 1-[(1-ethyl-1H-pyrazol-4-yl)methyl]-3-{5-fluoro-6-[(2R)-2-methylmorpholin-4-yl]-4-(trifluoromethyl)pyridin-2-yl}-4,5-dimethyl-1,3-dihydro-2H-imidazol-2-one], the inhibition at 30 µM amounted to 101%.

Turning to `CCn1cc(Cn2cnn(-c3cc(OCC4CC(F)(F)C4)cc(C(F)(F)F)c3F)c2=O)cn1` [Example 151, 2-{5-[(3,3-difluorocyclobutyl)methoxy]-2-fluoro-3-(trifluoromethyl)phenyl}-4-[(1-ethyl-1H-pyrazol-4-yl)methyl]-2,4-dihydro-3H-1,2,4-triazol-3-one], the inhibition at 30 µM stood at 98%.

As to `CCn1cc(Cn2c(C)c(C)n(-c3cc(N4CCO[C@H](C)C4)cc(C(F)(F)F)c3)c2=O)cn1` [Example 16, 1-[(1-ethyl-1H-pyrazol-4-yl)methyl]-4,5-dimethyl-3-(3-[(2R)-2-methylmorpholin-4-yl]-5-(trifluoromethyl)phenyl}-1,3-dihydro-2H-imidazol-2-one], the inhibition at 30 µM came to 100%.

As to `CCn1cc(Cn2ccn(-c3cc(N4C[C@@H](C)O[C@H](C)C4)cc(C(F)(F)F)c3F)c2=O)cn1` [Example 34, 1-{5-[(2R,6R)-2,6-dimethylmorpholin-4-yl]-2-fluoro-3-(trifluoromethyl)phenyl}-3-[(1-ethyl-1H-pyrazol-4-yl)methyl]-1,3-dihydro-2H-imidazol-2-one], the inhibition at 30 µM was 100%.

`CCn1cc(Cn2cc(C)n(-c3cc(OCC(F)F)cc(N4CCO[C@H](C)C4)c3)c2=O)cn1` [Example 71, 3-{3-(2,2-difluoroethoxy)-5-[(2R)-2-methylmorpholin-4-yl]phenyl}-1-[(1-ethyl-1H-pyrazol-4-yl)methyl]-4-methyl-1,3-dihydro-2H-imidazol-2-one]: the inhibition at 30 µM came out at 98%.

On to `CCn1cc(Cn2cc(C)n(-c3cc(N4CCO[C@H](C)C4)cc(C(F)(F)F)c3)c2=O)cn1` [Example 14, 1-[(1-ethyl-1H-pyrazol-4-yl)methyl]-4-methyl-3-{3-[(2R)-2-methylmorpholin-4-yl]-5-(trifluoromethyl)phenyl}-1,3-dihydro-2H-imidazol-2-one], for which the inhibition at 30 µM amounted to 99%.

Regarding `CC(C)n1cc(Cn2ccn(-c3cc(N4CCO[C@H](C)C4)cc(C(F)(F)F)c3F)c2=O)cn1` [Example 35, 1-{2-fluoro-5-[(2R)-2-methylmorpholin-4-yl]-3-(trifluoromethyl)phenyl}-3-{[1-(propan-2-yl)-1H-pyrazol-4-yl]methyl}-1,3-dihydro-2H-imidazol-2-one], the inhibition at 30 µM came out at 99%.

In the case of `CCn1cc(Cn2ccn(-c3cc(N4CCO[C@H](C)C4)cc(C4CC4(F)F)c3F)c2=O)cn1` (stereo partly drawn) [Example 78, 1-{3-(2,2-difluorocyclopropyl)-2-fluoro-5-[(2R)-2-methylmorpholin-4-yl]phenyl}-3-[(1-ethyl-1H-pyrazol-4-yl)methyl]-1,3-dihydro-2H-imidazol-2-one], the inhibition at 30 µM worked out at 99%.

With `CCn1cc(Cn2cc(C)n(-c3cc(C(F)(F)F)cc(NCC4(F)CCC4)n3)c2=O)cn1` [Example 110, 1-[(1-Ethyl-1-pyrazole-4-yl)methyl]-3-[6={[(1-fluorocyclobutyl)methyl]amino}-4-(trifluoromethyl)pyridine-2-yl]-4-methyl-1,3-dihydro-2H-imidazole-2-one], the inhibition at 30 µM came to 101%.

With `CCn1cc(Cn2cc(C)n(-c3cc(N4CCO[C@@H](C)C4)cc(C(F)(F)F)c3)c2=O)cn1` [Example 28, 1-[(1-ethyl-1H-pyrazol-4-yl)methyl]-4-methyl-3-{3-[(2S)-2-methylmorpholin-4-yl]-5-(trifluoromethyl)phenyl}-1,3-dihydro-2H-imidazol-2-one], the inhibition at 30 µM turned out to be 99%.

Still in this experiment, the particulars now being: relative value, inhibition rate of Example Compound 2 in Test Example 1 defined as 100%, 30 µM.
Consider `CCn1cc(Cn2cc(C)n(-c3cc(C(F)(F)F)cc(OCC4CCCO4)n3)c2=O)cn1` (centres unmarked) [Example 109, 1-[(1-ethyl-1H-pyrazol-4-yl)methyl]-4-methyl-3-{6-[(oxolan-2-yl)methoxy]-4-(trifluoromethyl)pyridin-2-yl}-1,3-dihydro-2H-imidazol-2-one], for which the “Inhibition Rate at 30 μM” value was determined as 101%.
